Values of other authors in patent US9278076B2, “Chronotherapeutic dosage forms” (Endo Pharmaceuticals Inc., priority 2003, dated 2016).

settings: glucocorticoid equivalence chart

Row | SMILES | Approximate Equivalent Dose
1 | C[C@]12C=CC(=O)C=C1CC[C@@H]1[C@@H]2[C@@H](O)C[C@@]2(C)[C@H]1CC[C@]2(O)C(=O)CO [Prednisolone] | 5 mg
2 | C[C@]12CCC(=O)C=C1CC[C@@H]1[C@@H]2[C@@H](O)C[C@@]2(C)[C@H]1CC[C@]2(O)C(=O)CO [Hydrocortisone] | 20 mg
3 | C[C@]12C=CC(=O)C=C1CC[C@H]1[C@@H]3C[C@@H](O)[C@](O)(C(=O)CO)[C@@]3(C)C[C@H](O)[C@@]12F [Triamcinolone] | 4 mg
4 | C[C@]12CCC(=O)C=C1CC[C@@H]1[C@@H]2C(=O)C[C@@]2(C)[C@H]1CC[C@]2(O)C(=O)CO [Cortisone] | 25 mg
